“Also recorded” adds a separate entry of the source. Read-outs that look alike come from different tables or passages of the source.
How the values were obtained:
[1] = tested on: A/Hong Kong/2369/2009 (H1N1) H275Y (A/HK-H275Y) virus
[2] = tested on: influenza A/MS-H275Y virus; parameters: species or system BALB/c mice; conditions: mouse, in vivo
[3] = tested on: Influenza A/Mississippi/03/2001 (H1N1) H275Y (A/MS-H275Y) virus
[4] = tested on: influenza A/HK-H275Y virus; parameters: species or system BALB/c mice; conditions: mouse, in vivo
[5] = tested on: influenza A/WSN/33 (H1N1) H275Y virus; conditions: A/WSN/33 (H1N1) H275Y in mice, up to 10 mg/kg/day; ref Baz et al. (2009); cited from earlier work
[6] = tested on: influenza A/HK-H275Y virus neuraminidase; conditions: NA-Star assay, ref Nguyen et al., 2010a; cited from earlier work
[7] = biological target: A/HK-H275Y neuraminidase (Influenza A virus (A/Hong Kong/2369/2009(H1N1)), UniProt C6KQ69); experiment: biochemical
[8] = biological target: A/MS-H275Y neuraminidase (Influenza A virus (A/Mississippi/03/2001(H1N1)), UniProt C7FPR5, H275Y); type: biochemical
[9] = read-out: EC50 (50% virus-inhibitory concentration)

## NC(=O)c1ncn([C@@H]2O[C@H](CO)[C@@H](O)[C@H]2O)n1 [Ribavirin]
[1]
  EC50: 33 ± 13 µM
[2]
  survival effect (in words): not effective
[3]; [9]
  EC50: 25 ± 4.6 µM
[4]; po
  lung virus titer versus placebo (in words): significantly reduced virus titers; also recorded: not significantly lower than placebo
[4]; po, 75 mg/kg/day
  body weight change (in words): Weight decline was least severe
  day of infection after which weight gain started: > 8 days
  survival effect (in words): fully protective

## CCOC(=O)C1=C[C@@H](OC(CC)CC)[C@H](NC(C)=O)[C@@H](N)C1 [Oseltamivir, Oseltamivir phosphate]
[1]
  antiviral activity in cell culture (in words): resistant
[2]
  protection: up to 60%
  survival effect (in words): not active
[2]; po
  survival effect (in words): ineffective
[2]; po, 25 mg/kg/day
  benefit (in words): no benefit
[2]; po, 100 mg/kg/day
  survival (protection from death): 30%
[2]; po, 300 mg/kg/day
  survival (protection from death): 60%
[3]
  antiviral activity in cell culture (in words): resistant
[4]
  body weight change (in words): did not fall as rapidly as in the lower dosage and placebo groups
  day of infection after which body weights began to increase: > 10 days
  survival effect (in words): not significantly effective
[4]; po, 25 mg/kg/day
  benefit (in words): no benefit
[4]; po, 100 mg/kg/day
  survival (protection from death): 50%
[4]; po, 300 mg/kg/day
  survival (protection from death): 70%
[5]
  efficacy in treating the infection (in words): ineffective
  mortality rate: 75%

## Peramivir
[6]
  IC50: 9.2 µM
[1]
  EC50: 7.9 ± 3 µM
  SI (CC50/EC50): >12
  antiviral activity in cell culture (in words): decreased sensitivity
[7]
  IC50: 0.029 ± 0.0023 µM
[8]
  IC50: 0.038 ± 0.001 µM
  sensitivity of the viral neuraminidases (in words): resistant
[3]
  SI (CC50/EC50): >12
  antiviral activity in cell culture (in words): decreased sensitivity
[3]; [9]
  EC50: 8.1 ± 5.2 µM
[3]; read-out: inhibitory concentration against the H275Y viruses in cell culture
  EC50: ~8 µM

## NC12CC3CC(CC(C3)C1)C2 [Amantadine]
[1]
  EC50: > 100 µM
  antiviral activity in cell culture (in words): not active
[2]
  survival effect (in words): No significant effect
[2]; po, 3 mg/kg/day
  survival effect (in words): no effect
[2]; po, 30 mg/kg/day
  protection from death: 60%
[2]; po, 100 mg/kg/day
  protection from death: 100%
  protective activity: 100%
[3]; [9]
  EC50: 0.3 ± 0.05 µM

## CCC(CC)O[C@@H]1C=C(C(=O)O)C[C@H](N)[C@H]1NC(C)=O [Oseltamivir Carboxylate, Oseltamivir carboxylate]
[6]
  IC50: 78 µM
[1]
  EC50: > 100 µM
[7]; IC50
  IC50: > 0.1 µM
[8]
  sensitivity of the viral neuraminidases (in words): resistant
[3]; [9]
  EC50: > 100 µM

## CC(=O)N[C@H]1[C@H]([C@H](O)[C@H](O)CO)OC(C(=O)O)=C[C@@H]1N=C(N)N [Zanamivir]
[6]
  IC50: 0.43 µM
[1]
  EC50: 0.36 ± 0.58 µM
  antiviral activity in cell culture (in words): highly sensitive
[7]; IC50
  IC50: 0.0009 ± 0.0002 µM
[2]
  survival effect (in words): ineffective; also recorded: delayed the time to death significantly but did little to prevent mortality
[8]
  sensitivity of the viral neuraminidases (in words): sensitive
[3]
  antiviral activity in cell culture (in words): highly sensitive
[3]; [9]
  EC50: 0.24 ± 0.08 µM

## CC(N)C12CC3CC(CC(C3)C1)C2 (stereo not shown) [Rimantadine]
[1]
  EC50: > 22 µM
  SI (CC50/EC50): 0
  antiviral activity in cell culture (in words): not active
[2]
  survival effect (in words): no significant effect
[3]
  SI (CC50/EC50): 2200
[3]; [9]
  EC50: 0.01 ± 0.003 µM

From PMC3465485 (Antiviral research, 2012)
